The nature of data set [1]: Fluorescence spectra of benzocoumarin-based fluorescent dyes. Type of data set: physicochemical. Particulars: 10 μM dye in HEPES buffer, dioxane, ethanol, acetonitrile, dichloromethane, dimethylsulfoxide or toluene (1% DMSO); compared with Compounds 1c and 1g to 1l (FIG. 2). The text has this: The inventors confirmed absorption characteristics of representative compounds among Compounds 1g to 1k, which are two-photon absorbing near-infrared fluorescent dyes, and Compounds 1a to 1f and 1l to 4g, which are two-photon absorbing fluorescent dyes, of the present invention, and the results are shown in FIG. 2.
Specifically, to confirm the characteristics of fluorescent spectra of two-photon absorbing near-infrared fluorescent dyes, the inventors measured fluorescence spectra (measured using a photon technical international fluorescence system) by charging a quartz cell with a 1-cm path length with 4-(2-hydroxyethyl)-1-piperazineethanesulfonic acid (HEPES) buffer, […], dioxane, ethanol, acetonitrile, dichloromethane, dimethylsulfoxide, a toluene solution (containing 1% DMSO), which contains 10 μM each of Compounds 1a to 4g, and the wavelength of maximum absorbance is shown in FIG. 2.

Data set [2] is described as follows: UV/Vis absorbance spectra of benzocoumarin-based fluorescent dyes (wavelength of maximum absorbance). Type of data set: physicochemical. The conditions noted are these: 10 μM dye in HEPES buffer, PBS buffer, dioxane, ethanol, acetonitrile, dichloromethane, dimethylsulfoxide or toluene (1% DMSO); compared with Compounds 1c and 1g to 1l (FIG. 1). The text has this:
The inventors confirmed absorption characteristics of representative compounds among Compounds 1g to 1k, which are two-photon absorbing near-infrared fluorescent dyes, and Compounds 1a to 1f and 1l to 4g, which are two-photon absorbing fluorescent dyes, of the present invention, and the results are shown in FIG. 1.
Specifically, to confirm the characteristics of UV/Vis absorbance spectra of benzocoumarin-based near-infrared fluorescent dyes and derivatives thereof, the inventors measured UV/Vis absorbance spectra (measured using a HP8453 UV/Vis absorbance spectrophotometer) by charging a quartz cell with a 1-cm path length with 4-(2-hydroxyethyl)-1-piperazineethanesulfonic acid (HEPES) buffer, phosphate-buffered saline (PBS) buffer, dioxane, ethanol, acetonitrile, dichloromethane, dimethylsulfoxide, or a toluene solution (containing 1% DMSO), which contains 10 μM each of Compounds 1a to 4g, and the wavelength of maximum absorbance is shown in FIG. 1.

A further data set has as its system mouse kidney tissue. Briefly: Two-photon fluorescence microscopy imaging of mouse kidney tissue slices treated with dye. Also on record: species or system mouse (Balb/C). The conditions noted are these: 10 μM. The protocol: The inventors observed fluorescent changes by two-photon microscopy after mouse tissue was treated with Compound 1g of the present invention, and the result is shown in FIG. 3.
Specifically, to observe a two-photon microscopy image of mouse tissue treated with Compound 1g, kidney tissue of a Balb/C type mouse (6 weeks old) was used, and an experiment was carried out under a light-protected condition (dark room). The mouse kidney tissue was dissected and washed with a PBS buffer solution, and then each organ was frozen over dry-ice for 5 minutes. The frozen organs were crushed with a hammer, and then a tissue slice sample was prepared to a thickness of 16 μm using a cutter (Cryostat machine, Leica, CM3000 model). […] The tissue slice sample was put on a specimen block (Paul Marienfeld GMbH & Co.), and the specimen block was immersed in 4% paraformaldehyde for 10 minutes and washed with a PBS buffer solution, and then the tissue was fixed again using a mount solution (Gel Mount, BIOMEDA). The prepared tissue slice sample was immersed in a PBS buffer solution containing Compound 1g and acedan or IminoPOS at a concentration of 10 μM for 10 minutes, washed with a PBS buffer solution three times, and then fixed with 4% paraformaldehyde, followed by observation of fluorescence. […]

Each structure is given as a SMILES string. Entries after “also recorded” stand apart in the source; their conditions may differ.

As for `CN(C)c1ccc2cc3cc(-c4ccncc4)c(=O)oc3cc2c1` [Compound 1b, 8-(dimethylamino)-3-(pyridine-4-yl)-2H-benzo[g]chromene-2-one], the “wavelengths of maximum absorbance (fluorescence spectra, FIG. 2)” value (from here on “wavelengths … (fluorescence spectra, FIG. 2)”) in data set [1] is “did not have a significant difference”. Also, the “wavelengths of maximum absorbance” value in data set [2] was “did not have a significant difference”.
Regarding `CNc1ccc2cc3cc(-c4ccncc4)c(=O)oc3cc2c1` [Compound 1d, 8-(methylamino)-3-(pyridine-4-yl)-2H-benzo[g]chromene-2-one], in data set [1], the “wavelengths … (fluorescence spectra, FIG. 2)” value is on record as “did not have a significant difference”. In data set [2], the “wavelengths of maximum absorbance” value is listed as “did not have a significant difference”.
Consider `C=CCNc1ccc2cc3cc(-c4ccncc4)c(=O)oc3cc2c1` [Compound 1e, 8-(allylamino)-3-(pyridine-4-yl)-2H-benzo[g]chromene-2-one], for which the “wavelengths … (fluorescence spectra, FIG. 2)” value in data set [1] is listed as “did not have a significant difference”. In data set [2], the “wavelengths of maximum absorbance” value was “did not have a significant difference”.
Regarding `C[n+]1ccc(-c2cc3cc4ccc(N5CCCC5)cc4cc3oc2=O)cc1.[OH-]` [Compound 1g, 1-methyl-4-(2-oxo-8-(pyrrolidine-1-yl)-2H-benzo[g]chromene-3-yl)pyridinium trifluoromethanesulfonate], in the data set with mouse kidney tissue (depths 25, 125, 175 μm, compared to acedan or IminoPOS (conventional two-photon dyes), FIG. 3c), the “quality of two-photon fluorescence image” value was “superior fluorescence image; also recorded: high-definition and high-contrast image”. Moreover, in the data set with mouse kidney tissue (two-photon excitation 900 nm, surface layer to middle depth (50 to 150 μm), compared to acedan (800 nm) and IminoPOS (850 nm), FIG. 3b), the “signal/noise (S/N) ratio of two-photon tissue image” value is “increased”.
As for `Nc1ccc2cc3cc(-c4ccncc4)c(=O)oc3cc2c1` [Compound 1f, 8-amino-3-(pyridine-4-yl)-2H-benzo[g]chromene-2-one], the “wavelengths … (fluorescence spectra, FIG. 2)” value in data set [1] is given as “did not have a significant difference”. The “wavelengths of maximum absorbance” value in data set [2] is “did not have a significant difference”.
Consider `O=c1oc2cc3cc(N4CCCC4)ccc3cc2cc1-c1ccncc1` [Compound 1a, 3-(pyridine-4-yl)-8-(pyrrolidine-1-yl)-2H-benzo[g]chromene-2-one], for which the “wavelengths … (fluorescence spectra, FIG. 2)” value in data set [1] is given as “did not have a significant difference”. Also, the “wavelengths of maximum absorbance” value in data set [2] was “did not have a significant difference”.
